One test concerns the target FGFR3 (Homo sapiens, UniProt P22607). The test is described as follows: Enzymatic activity test (LabChip EZ Reader II / Caliper), FGFR3. The format is biochemical. The settings on record: FGFR3(h), FAM-labelled polypeptide substrate and ATP, 30 min incubation; read-out: Inhibitory activity against FGFR (IC50) FGFR3. On the procedure: (§1) Experimental Example 1: Enzymatic Activity Test of the Compounds of the Present Invention
(§2) Test substance: The compounds of the present invention, the structures of which are shown above.
(§3) Test Instrument: The LabChip EZ Reader II drug screening platform.
(§4) 1. Preparation for compound plate a) 96-well plates, 10 dose groups, 3-fold serial dilutions, added DMSO to each well, maximal concentration of 500 μM. b) 384-well plates, diluted with 1× kinase buffer (50 mM HEPES, pH 7.5; 0.0015% Brij-35; 2 mM DTT), each well containing 5× compound dissolved in 5 μL of 10% DMSO. The negative control well was 5 μL of 1× kinase buffer containing 10% DMSO. 2. Experimental procedure
(§5) […] in 1× kinase buffer were reacted with 2.5× enzyme solution at room temperature for 10 min, and then the FAM-labelled polypeptide substrate and ATP were added to initiate reaction. After incubation for 30 min, 25 μL of terminal solution (100 mM HEPES, pH 7.5; 0.015% Brij-35; 0.2% Coating Reagent #3; 50 mM EDTA) was added to terminate the reaction, and the final data were read by Caliper.

The subject of a further test is Hep3B. The test is described as follows: Cellular activity test (Cell titer-Glo), Hep3B. The format is cell-based. The settings on record: Homo sapiens, hepatocellular carcinoma cell with abnormal FGFR, 72 h, read-out: Inhibitory activity against cells (IC50) Hep3B.
Excerpt: (§6) Experimental Example 2: Celluar Activity Test of the Compounds of the Present Invention
(§7) Hep3B is a cell with abnormal FGFR in hepatocellular carcinoma RT112/84 is a cell with abnormal FGFR in bladder cancer DMS114 is a cell with abnormal FGFR in small cell lung cancer AN3CA is a cell with abnormal FGFR in endometrial cancer SNU-16 is a cell with abnormal FGFR in gastric cancer
as §2
(§8) Test instrument: The Espire multi-function microplate reader.
(§9) Each cell line was seeded into a 96-well plate, and adherent cultured overnight. Then, the compounds at different concentrations (12 dose groups, 3× DMSO serial dilutions) were added to a final concentration of 0.17-30000 nM, with the final content of DMSO of 5‰. The negative control well was medium containing 5‰ DMSO. After incubation at 37° C., 5% CO2, 95% humidity for 72 h, the cultures would be test. 30 μL of Cell titer-Glo reagent was added to each well and incubated for 30 min at room temperature. The final data were read by Espire microplate reader.

The test system of the next test is DMS114. The test is described as follows: Cellular activity test (Cell titer-Glo), DMS114. Format: cell-based. The settings on record: Homo sapiens, DMS-114, DMS114, small cell lung cancer cell with abnormal FGFR, 72 h, read-out: Inhibitory activity against cells (IC50) DMS114.
Excerpt: as §6, §7, §2, §8, §9

A further test deals with FGFR4 (Homo sapiens, UniProt P22455). The test is described as follows: Enzymatic activity test (LabChip EZ Reader II / Caliper), FGFR4. As to conditions: FGFR4(h), FAM-labelled polypeptide substrate and ATP, 30 min incubation; read-out: Inhibitory activity against FGFR (IC50) FGFR4. The format is biochemical. The method, then: as §1, §2, §3, §4, §5
The target of another test is FGFR1 (Homo sapiens, UniProt P11362). The test is described as follows: Enzymatic activity test (LabChip EZ Reader II / Caliper), FGFR1. Format: biochemical. As to conditions: FGFR1(h), FAM-labelled polypeptide substrate and ATP, 30 min incubation; read-out: Inhibitory activity against FGFR (IC50) FGFR1. The method, then: as §1, §2, §3, §4, §5
Another test relates to RT112/84. The test is described as follows: Cellular activity test (Cell titer-Glo), RT112/84. Format: cell-based. The settings on record: Homo sapiens, RT112/84, bladder cancer cell with abnormal FGFR, 72 h, read-out: Inhibitory activity against cells (IC50) RT112/84.
Excerpt: as §6, §7, §2, §8, §9
For orientation: In ATP-based viability assays light output follows the ATP content of the culture.

A further test addresses FGFR2 (Homo sapiens, UniProt P21802). The test is described as follows: Enzymatic activity test (LabChip EZ Reader II / Caliper), FGFR2. The settings on record: FGFR2(h), FAM-labelled polypeptide substrate and ATP, 30 min incubation; read-out: Inhibitory activity against FGFR (IC50) FGFR2. The format is biochemical. On the procedure: as §1, §2, §3, §4, §5
The next test concerns SNU-16. The test is described as follows: Cellular activity test (Cell titer-Glo), SNU-16. Format: cell-based. The settings on record: Homo sapiens, SNU-16, gastric cancer cell with abnormal FGFR, 72 h, read-out: Inhibitory activity against cells (IC50) SNU-16.
Excerpt: as §6, §7, §2, §8, §9

A further test concerns AN3CA. The test is described as follows: Cellular activity test (Cell titer-Glo), AN3CA. Format: cell-based. The settings on record: Homo sapiens, AN3-CA, endometrial cancer cell with abnormal FGFR, 72 h, read-out: Inhibitory activity against cells (IC50) AN3CA.
Excerpt: as §6, §7, §2, §8, §9

Chain of FGFR4 (P22455 22-802): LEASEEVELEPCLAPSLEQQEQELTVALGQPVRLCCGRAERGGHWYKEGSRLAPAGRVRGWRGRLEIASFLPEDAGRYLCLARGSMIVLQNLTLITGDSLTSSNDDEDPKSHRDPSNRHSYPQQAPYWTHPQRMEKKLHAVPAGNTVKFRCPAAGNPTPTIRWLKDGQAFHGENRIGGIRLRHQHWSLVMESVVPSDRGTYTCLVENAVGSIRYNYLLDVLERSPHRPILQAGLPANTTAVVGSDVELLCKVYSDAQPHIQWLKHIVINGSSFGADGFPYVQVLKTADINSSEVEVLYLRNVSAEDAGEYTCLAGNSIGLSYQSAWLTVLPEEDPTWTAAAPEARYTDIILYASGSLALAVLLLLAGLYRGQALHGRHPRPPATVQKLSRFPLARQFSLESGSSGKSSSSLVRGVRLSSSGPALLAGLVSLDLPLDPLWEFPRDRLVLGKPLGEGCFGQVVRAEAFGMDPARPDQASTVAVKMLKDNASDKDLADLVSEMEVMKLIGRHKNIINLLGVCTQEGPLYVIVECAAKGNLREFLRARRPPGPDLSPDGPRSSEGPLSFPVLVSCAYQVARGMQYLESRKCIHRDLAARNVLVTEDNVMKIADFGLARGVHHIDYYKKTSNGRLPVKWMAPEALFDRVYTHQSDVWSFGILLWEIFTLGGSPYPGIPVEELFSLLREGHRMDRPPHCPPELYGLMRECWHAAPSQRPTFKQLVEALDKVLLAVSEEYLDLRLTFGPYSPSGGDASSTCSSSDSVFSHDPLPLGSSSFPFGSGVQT
Chain of FGFR2 (P21802 22-821): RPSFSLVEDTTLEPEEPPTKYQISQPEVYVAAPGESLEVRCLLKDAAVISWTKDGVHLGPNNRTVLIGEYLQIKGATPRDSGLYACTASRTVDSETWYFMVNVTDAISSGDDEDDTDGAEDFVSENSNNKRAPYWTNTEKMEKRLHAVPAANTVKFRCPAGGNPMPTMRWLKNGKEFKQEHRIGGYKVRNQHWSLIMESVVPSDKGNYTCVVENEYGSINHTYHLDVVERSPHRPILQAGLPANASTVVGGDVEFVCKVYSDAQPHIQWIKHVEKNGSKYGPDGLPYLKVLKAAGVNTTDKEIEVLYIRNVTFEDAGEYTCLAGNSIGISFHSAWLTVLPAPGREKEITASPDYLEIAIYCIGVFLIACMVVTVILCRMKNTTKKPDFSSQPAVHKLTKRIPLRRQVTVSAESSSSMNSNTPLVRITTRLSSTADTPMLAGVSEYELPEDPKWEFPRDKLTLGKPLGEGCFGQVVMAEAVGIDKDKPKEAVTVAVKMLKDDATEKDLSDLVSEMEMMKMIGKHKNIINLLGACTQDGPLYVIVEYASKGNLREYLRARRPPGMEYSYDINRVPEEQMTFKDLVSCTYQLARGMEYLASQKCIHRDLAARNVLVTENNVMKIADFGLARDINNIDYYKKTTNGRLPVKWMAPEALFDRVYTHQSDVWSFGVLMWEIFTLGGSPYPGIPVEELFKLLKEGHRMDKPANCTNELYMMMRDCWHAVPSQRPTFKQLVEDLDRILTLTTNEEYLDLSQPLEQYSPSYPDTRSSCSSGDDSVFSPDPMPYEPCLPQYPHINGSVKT
Chain of FGFR1 (P11362 22-822): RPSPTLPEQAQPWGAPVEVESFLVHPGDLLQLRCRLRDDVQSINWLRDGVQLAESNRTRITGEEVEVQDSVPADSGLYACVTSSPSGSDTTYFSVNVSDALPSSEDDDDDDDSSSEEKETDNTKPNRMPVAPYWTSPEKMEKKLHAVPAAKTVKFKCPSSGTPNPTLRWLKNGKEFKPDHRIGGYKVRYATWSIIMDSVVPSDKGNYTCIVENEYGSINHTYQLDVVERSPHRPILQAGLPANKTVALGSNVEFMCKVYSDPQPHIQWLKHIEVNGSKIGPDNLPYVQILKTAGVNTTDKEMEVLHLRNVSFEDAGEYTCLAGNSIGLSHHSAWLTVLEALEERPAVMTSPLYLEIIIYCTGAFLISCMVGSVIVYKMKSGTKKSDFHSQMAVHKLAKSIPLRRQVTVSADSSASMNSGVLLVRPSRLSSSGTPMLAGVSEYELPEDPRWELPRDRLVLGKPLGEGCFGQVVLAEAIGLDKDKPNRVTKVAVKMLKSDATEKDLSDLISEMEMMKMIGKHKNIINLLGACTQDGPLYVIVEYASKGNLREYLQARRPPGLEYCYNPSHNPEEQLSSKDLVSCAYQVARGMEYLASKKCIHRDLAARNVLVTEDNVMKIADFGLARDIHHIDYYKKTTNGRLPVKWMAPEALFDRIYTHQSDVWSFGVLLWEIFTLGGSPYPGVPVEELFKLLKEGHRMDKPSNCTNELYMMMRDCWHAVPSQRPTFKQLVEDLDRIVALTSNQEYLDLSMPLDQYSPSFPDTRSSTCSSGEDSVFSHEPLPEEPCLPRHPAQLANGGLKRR
Chain of FGFR3 (P22607 23-806): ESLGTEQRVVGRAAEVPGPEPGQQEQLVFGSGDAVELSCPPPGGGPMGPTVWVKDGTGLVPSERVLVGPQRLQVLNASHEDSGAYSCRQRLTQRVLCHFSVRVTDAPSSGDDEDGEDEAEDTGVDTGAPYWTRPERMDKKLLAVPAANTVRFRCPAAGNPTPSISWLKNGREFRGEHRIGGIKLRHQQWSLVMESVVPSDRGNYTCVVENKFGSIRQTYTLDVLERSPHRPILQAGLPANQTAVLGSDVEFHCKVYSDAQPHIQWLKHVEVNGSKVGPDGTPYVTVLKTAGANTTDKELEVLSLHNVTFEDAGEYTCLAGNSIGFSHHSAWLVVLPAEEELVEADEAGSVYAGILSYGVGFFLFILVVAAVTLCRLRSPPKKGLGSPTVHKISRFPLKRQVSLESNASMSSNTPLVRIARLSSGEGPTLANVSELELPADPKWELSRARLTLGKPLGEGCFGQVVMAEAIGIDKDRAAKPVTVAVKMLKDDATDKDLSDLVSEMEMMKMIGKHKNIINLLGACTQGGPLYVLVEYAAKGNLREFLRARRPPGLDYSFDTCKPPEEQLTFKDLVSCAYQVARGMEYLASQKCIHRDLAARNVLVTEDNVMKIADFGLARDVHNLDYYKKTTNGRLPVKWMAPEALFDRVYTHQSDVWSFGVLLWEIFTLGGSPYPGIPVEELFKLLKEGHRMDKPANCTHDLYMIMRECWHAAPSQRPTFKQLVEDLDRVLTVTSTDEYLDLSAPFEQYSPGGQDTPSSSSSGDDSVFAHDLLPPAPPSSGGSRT

Take `C=CC(=O)N1CC[C@H](Nc2ncc3cc(-c4c(Cl)c(OC)cc(OC)c4Cl)ccc3n2)C1` [Compound 5, (S)-1-(3-((6-(2,6-dichloro-3,5-dimethoxyphenyl)quinazolin-2-yl)amino)pyrrolidin-1-yl)propyl-2-en-1-one]: the IC50 came to 18 nM on FGFR3; 153 nM in the test on Hep3B; 58 nM in the test with DMS114; 175 nM at FGFR4; 5.4 nM on FGFR1; 56 nM with RT112/84. In addition, at FGFR2, the IC50 worked out at 5.5 nM.
With `C=CC(=O)N1C[C@@H](C)[C@H](Nc2ncc3cc(-c4c(Cl)c(OC)cc(OC)c4Cl)ccc3n2)C1` [Compound 20, 1-((3S,4R)-3-((6-(2,6-dichloro-3,5-dimethoxyphenyl)quinazolin-2-yl)amino)-4-methylpyrrolidin-1-yl)propyl-2-en-1-one], the IC50 came to 34 nM at FGFR3; 50.2 nM with Hep3B; 113 nM in the test with DMS114; 68 nM on FGFR4; 15 nM on FGFR1; 77 nM in the test on RT112/84. At FGFR2, the IC50 stood at 15 nM.
As for `C=CC(=O)N1C[C@@H](Nc2ncc3cc(-c4c(Cl)c(OC)cc(OC)c4Cl)ccc3n2)C[C@H]1CO` [Compound 22, 1-((2S,4S)-4-((6-(2,6-dichloro-3,5-dimethoxyphenyl)quinazolin-2-yl)amino)-2-(hydroxymethyl)pyrrolidin-1-yl)prop-2-en-1-one], the IC50 with SNU-16 was found to be 11 nM; at FGFR3, 19 nM; in the test on Hep3B, 32.2 nM; in the test on DMS114, 25 nM; on FGFR4, 101 nM; at FGFR1 it was 4.6 nM. Further, the IC50 with AN3CA is 59 nM; with RT112/84 it was 40 nM; at FGFR2, 4.4 nM.
Consider `C=CC(=O)N1C[C@@H](Nc2ncc3cc(-c4c(Cl)c(OC)cc(OC)c4Cl)ccc3n2)C[C@@H]1CO` [Compound 23], for which the IC50 amounted to 22 nM in the test with SNU-16; 26 nM in the test with Hep3B; 31 nM in the test on DMS114; 86 nM in the test on AN3CA; 50 nM in the test on RT112/84.
In the case of `C=CC(=O)N1C[C@@H](Nc2ncc3cc(-c4c(Cl)c(OC)cc(OC)c4Cl)ccc3n2)C[C@H]1CF` [Compound 24, 1-((2S,4S)-4-((6-(2,6-dichloro-3,5-dimethoxyphenyl)quinazolin-2-yl)amino)-2-(fluoromethyl)pyrrolidin-1-yl)prop-2-en-1-one], the values for the IC50 in the test on SNU-16, in the test on Hep3B and in the test with RT112/84 were 48 nM, 46 nM and 153 nM, respectively.
`C=CC(=O)N1C[C@H](O)[C@H](Nc2ncc3cc(-c4c(Cl)c(OC)cc(OC)c4Cl)ccc3n2)C1` [Compound 46]: the values for the IC50 on FGFR3, on FGFR1 and on FGFR2 were 22 nM, 5.8 nM and 8.2 nM, respectively.
In the case of `C=CC(=O)N1C[C@@H](CC)[C@H](Nc2ncc3cc(-c4c(Cl)c(OC)cc(OC)c4Cl)ccc3n2)C1` [Compound 48], the IC50 stood at 75 nM at FGFR3, 17 nM on FGFR1 and 25 nM on FGFR2.
On to `C=CC(=O)N1CC2(CC(Nc3ncc4cc(-c5c(Cl)c(OC)cc(OC)c5Cl)ccc4n3)C2)C1` [Compound 65, 1-(6-((6-(2,6-dichloro-3,5-dimethoxyphenyl)quinazolin-2-yl)amino)-2-azaspiro[3.3]heptan-2-yl)prop-2-en-1-one], for which the values for the IC50 in the test with SNU-16, in the test with Hep3B and with RT112/84 were 92 nM, 66 nM and 161 nM, respectively.
On to `C=CC(=O)N1CC(Nc2ncc3cc(-c4c(Cl)c(OC)cc(OC)c4Cl)ccc3n2)c2ccccc21` (stereo not shown) [Compound 67], for which the IC50 on FGFR4 worked out at 129 nM; on FGFR1, 8 nM; on FGFR2, 56 nM.

The values are drawn from patent US20200108070A2, “INHIBITORS OF FIBROBLAST GROWTH FACTOR RECEPTOR AND USE THEREOF” (Nanjing TransThera Biosciences Co. Ltd., priority 2016, published 2020).
